Laboratory results as given in ChEMBL document CHEMBL1177848, “Synthesis of novel 6,6a,7,8-tetrahydro-5H-naphtho[1,2-e]pyrimido[4,5-b][1,4]diazepines under microwave irradiation as potential anti-tumor agents” (2010).
Activity calls are given as the source filed them.

Experiments:
Format in all cases: functional, cell-based
RPMI-8226 = experiment: Growth inhibition of human RPMI8226 cells at 1 uM after 48 hrs by sulforhodamine B assay
SR = experiment: Growth inhibition of human SR cells at 1 uM after 48 hrs by sulforhodamine B assay
CCRF-CEM = experiment: Growth inhibition of human CCRF-CEM cells at 1 uM after 48 hrs by sulforhodamine B assay
HL-60 = experiment: Growth inhibition of human HL-60(TB) cells at 1 uM after 48 hrs by sulforhodamine B assay
K562 = experiment: Growth inhibition of human K562 cells at 1 uM after 48 hrs by sulforhodamine B assay
MOLT-4 = experiment: Growth inhibition of human MOLT4 cells at 1 uM after 48 hrs by sulforhodamine B assay
EKVX = experiment: Growth inhibition of human EKVX cells at 1 uM after 48 hrs by sulforhodamine B assay
HOP-92 = experiment: Growth inhibition of human HOP92 cells at 1 uM after 48 hrs by sulforhodamine B assay
NCI-H226 = experiment: Growth inhibition of human NCI-H226 cells at 1 uM after 48 hrs by sulforhodamine B assay
NCI-H23 = experiment: Growth inhibition of human NCI-H23 cells at 1 uM after 48 hrs by sulforhodamine B assay
NCI-H460 = experiment: Growth inhibition of human NCI-H460 cells at 1 uM after 48 hrs by sulforhodamine B assay
NCI-H522 = experiment: Growth inhibition of human NCI-H522 cells at 1 uM after 48 hrs by sulforhodamine B assay
HOP-62 = experiment: Growth inhibition of human HOP62 cells at 1 uM after 48 hrs by sulforhodamine B assay
NCI-H322M = experiment: Growth inhibition of human […] cells at 1 uM after 48 hrs by sulforhodamine B assay
A549 = experiment: Growth inhibition of human A549 cells at 1 uM after 48 hrs by sulforhodamine B assay
COLO 205 = experiment: Growth inhibition of human COLO205 cells at 1 uM after 48 hrs by sulforhodamine B assay
HCT-116 = experiment: Growth inhibition of human HCT116 cells at 1 uM after 48 hrs by sulforhodamine B assay
HCT-15 = experiment: Growth inhibition of human HCT15 cells at 1 uM after 48 hrs by sulforhodamine B assay
HT-29 = experiment: Growth inhibition of human HT-29 cells at 1 uM after 48 hrs by sulforhodamine B assay
KM12 = experiment: Growth inhibition of human KM12 cells at 1 uM after 48 hrs by sulforhodamine B assay
SW-620 = experiment: Growth inhibition of human SW620 cells at 1 uM after 48 hrs by sulforhodamine B assay
HCC 2998 = experiment: Growth inhibition of human HCC2998 cells at 1 uM after 48 hrs by sulforhodamine B assay
SF-295 = experiment: Growth inhibition of human SF295 cells at 1 uM after 48 hrs by sulforhodamine B assay
SF-539 = experiment: Growth inhibition of human SF539 cells at 1 uM after 48 hrs by sulforhodamine B assay
U-251 = experiment: Growth inhibition of human U251 cells at 1 uM after 48 hrs by sulforhodamine B assay
SF-268 = experiment: Growth inhibition of human SF268 cells at 1 uM after 48 hrs by sulforhodamine B assay
SF530 = experiment: Growth inhibition of human SF530 cells at 1 uM after 48 hrs by sulforhodamine B assay
SNB-75 = experiment: Growth inhibition of human SNB75 cells at 1 uM after 48 hrs by sulforhodamine B assay
LOX IMVI = experiment: Growth inhibition of human LOXIMVI cells at 1 uM after 48 hrs by sulforhodamine B assay
Malme-3M = experiment: Growth inhibition of human MALME-3M cells at 1 uM after 48 hrs by sulforhodamine B assay
MDA-MB-435 = experiment: Growth inhibition of human MDA-MB-435 cells at 1 uM after 48 hrs by sulforhodamine B assay
SK-MEL-5 = experiment: Growth inhibition of human SK-MEL-5 cells at 1 uM after 48 hrs by sulforhodamine B assay
UACC-257 = experiment: Growth inhibition of human UACC257 cells at 1 uM after 48 hrs by sulforhodamine B assay
UACC-62 = experiment: Growth inhibition of human UACC62 cells at 1 uM after 48 hrs by sulforhodamine B assay
SK-MEL-2 = experiment: Growth inhibition of human SK-MEL-2 cells at 1 uM after 48 hrs by sulforhodamine B assay
M14 = experiment: Growth inhibition of human M14 cells at 1 uM after 48 hrs by sulforhodamine B assay
SK-MEL-28 = experiment: Growth inhibition of human SK-MEL-28 cells at 1 uM after 48 hrs by sulforhodamine B assay
IGROV-1 = experiment: Growth inhibition of human IGROV1 cells at 1 uM after 48 hrs by sulforhodamine B assay
OVCAR-3 = experiment: Growth inhibition of human OVCAR-3 cells at 1 uM after 48 hrs by sulforhodamine B assay
OVCAR-4 = experiment: Growth inhibition of human OVCAR4 cells at 1 uM after 48 hrs by sulforhodamine B assay
NCI/ADR-RES = experiment: Growth inhibition of human NCI/ADR-RES cells at 1 uM after 48 hrs by sulforhodamine B assay
OVCAR-8 = experiment: Growth inhibition of human OVCAR8 cells at 1 uM after 48 hrs by sulforhodamine B assay
A498 = experiment: Growth inhibition of human A498 cells at 1 uM after 48 hrs by sulforhodamine B assay
ACHN = experiment: Growth inhibition of human ACHN cells at 1 uM after 48 hrs by sulforhodamine B assay
CAKI-1 = experiment: Growth inhibition of human Caki1 cells at 1 uM after 48 hrs by sulforhodamine B assay
RXF 393 = experiment: Growth inhibition of human RXF393 cells at 1 uM after 48 hrs by sulforhodamine B assay
SN12C = experiment: Growth inhibition of human SN12C cells at 1 uM after 48 hrs by sulforhodamine B assay
TK-10 = experiment: Growth inhibition of human TK10 cells at 1 uM after 48 hrs by sulforhodamine B assay
UO-31 = experiment: Growth inhibition of human UO31 cells at 1 uM after 48 hrs by sulforhodamine B assay
786-0 = experiment: Growth inhibition of human 786-0 cells at 1 uM after 48 hrs by sulforhodamine B assay
PC-3 = experiment: Growth inhibition of human PC3 cells at 1 uM after 48 hrs by sulforhodamine B assay
DU-145 = experiment: Growth inhibition of human DU145 cells at 1 uM after 48 hrs by sulforhodamine B assay
MCF7 = experiment: Growth inhibition of human MCF7 cells at 1 uM after 48 hrs by sulforhodamine B assay
MDA-MB-231 = experiment: Growth inhibition of human MDA-MB-231 cells at 1 uM after 48 hrs by sulforhodamine B assay
BT-549 = experiment: Growth inhibition of human BT549 cells at 1 uM after 48 hrs by sulforhodamine B assay
T47D = experiment: Growth inhibition of human T47D cells at 1 uM after 48 hrs by sulforhodamine B assay
MDA-MB-468 = experiment: Growth inhibition of human MDA-MB-468 cells at 1 uM after 48 hrs by sulforhodamine B assay
Hs-578T = experiment: Growth inhibition of human Hs 578T cells at 1 uM after 48 hrs by sulforhodamine B assay

Measured: growth inhibition (GI)

Nc1ncnc2c1N=C1c3ccccc3CCC1C(c1ccc(F)cc1)N2 (stereo not drawn)
active: all assays above
